Patent publication US9481670B2, “Triazine compounds” (Sphaera Pharma PTE. Ltd., priority 2011, dated 2016)

Molecular target: T1, PI3K alpha (Homo sapiens, UniProt P42336)
T1 construct: purchased Millipore Upstate
Assay: P110 Alpha TR-FRET Assay (PI3K alpha kinase assay, HTRF Transcreener ADP Assay)
Assay type: biochemical
Conditions: PI3K (WT)
Experimental: PI3K alpha kinase assay may be done using HTRF Transcreener ADP Assay (Cisbio).
Composition of the reaction buffer was as follows 50 mM HEPES, pH 7.5, 5 mM MgCl2, 1 mM DTT, 30 μM Na3VO4. PI3 Kinase was procured from Millipore Upstate. […] ATP was used at final concentration of 10 μM. Corning 384 well white plates were used for the assay.
2 μl of diluted enzyme (50 ng), 3 μl of diluted compound and 5 μl of buffer were added, mixed then incubated for 20 minutes with shaking at 400 rpm. 3 μl of substrate (10 μM of ATP and 5 μM PIP2) were added to initiate the reaction. The samples were incubated for 20 min. At the end of the reaction time 10 μl of the Detection mix (5 μl of ADP-D2 and 5 μl of Anti-ADP-Cryptate) was added and the contents were incubated for 1 h. The reaction plate was directly read in an Envision Multilabel Plate Reader.

T1 sequence (P42336 whole entry): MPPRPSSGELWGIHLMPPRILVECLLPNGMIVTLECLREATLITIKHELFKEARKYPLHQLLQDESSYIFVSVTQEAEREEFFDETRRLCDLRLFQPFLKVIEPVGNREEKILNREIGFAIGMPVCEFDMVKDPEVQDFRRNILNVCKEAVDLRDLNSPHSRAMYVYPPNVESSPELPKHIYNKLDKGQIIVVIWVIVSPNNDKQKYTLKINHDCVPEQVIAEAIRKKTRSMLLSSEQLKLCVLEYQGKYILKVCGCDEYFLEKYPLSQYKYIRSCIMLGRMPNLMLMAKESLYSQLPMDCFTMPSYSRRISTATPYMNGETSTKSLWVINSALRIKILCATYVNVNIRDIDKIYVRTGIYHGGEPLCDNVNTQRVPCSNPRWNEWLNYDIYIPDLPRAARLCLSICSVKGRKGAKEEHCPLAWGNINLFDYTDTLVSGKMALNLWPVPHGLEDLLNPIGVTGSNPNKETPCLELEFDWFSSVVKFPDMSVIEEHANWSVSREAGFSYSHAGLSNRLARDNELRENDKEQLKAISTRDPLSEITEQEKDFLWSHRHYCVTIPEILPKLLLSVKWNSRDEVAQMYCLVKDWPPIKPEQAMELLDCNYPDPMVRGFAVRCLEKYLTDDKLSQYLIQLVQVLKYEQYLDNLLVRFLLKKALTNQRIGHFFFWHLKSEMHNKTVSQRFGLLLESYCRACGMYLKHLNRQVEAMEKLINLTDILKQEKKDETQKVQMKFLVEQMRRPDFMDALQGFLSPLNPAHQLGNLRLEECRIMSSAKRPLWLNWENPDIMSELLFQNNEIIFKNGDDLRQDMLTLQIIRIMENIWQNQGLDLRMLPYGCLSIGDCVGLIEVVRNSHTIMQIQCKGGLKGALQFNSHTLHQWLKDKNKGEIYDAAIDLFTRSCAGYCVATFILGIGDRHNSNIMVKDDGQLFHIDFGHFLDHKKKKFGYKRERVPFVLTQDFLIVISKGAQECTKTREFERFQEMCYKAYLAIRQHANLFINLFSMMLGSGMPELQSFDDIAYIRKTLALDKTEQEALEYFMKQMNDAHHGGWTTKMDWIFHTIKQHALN
T1 sequence (P27986 whole entry partner): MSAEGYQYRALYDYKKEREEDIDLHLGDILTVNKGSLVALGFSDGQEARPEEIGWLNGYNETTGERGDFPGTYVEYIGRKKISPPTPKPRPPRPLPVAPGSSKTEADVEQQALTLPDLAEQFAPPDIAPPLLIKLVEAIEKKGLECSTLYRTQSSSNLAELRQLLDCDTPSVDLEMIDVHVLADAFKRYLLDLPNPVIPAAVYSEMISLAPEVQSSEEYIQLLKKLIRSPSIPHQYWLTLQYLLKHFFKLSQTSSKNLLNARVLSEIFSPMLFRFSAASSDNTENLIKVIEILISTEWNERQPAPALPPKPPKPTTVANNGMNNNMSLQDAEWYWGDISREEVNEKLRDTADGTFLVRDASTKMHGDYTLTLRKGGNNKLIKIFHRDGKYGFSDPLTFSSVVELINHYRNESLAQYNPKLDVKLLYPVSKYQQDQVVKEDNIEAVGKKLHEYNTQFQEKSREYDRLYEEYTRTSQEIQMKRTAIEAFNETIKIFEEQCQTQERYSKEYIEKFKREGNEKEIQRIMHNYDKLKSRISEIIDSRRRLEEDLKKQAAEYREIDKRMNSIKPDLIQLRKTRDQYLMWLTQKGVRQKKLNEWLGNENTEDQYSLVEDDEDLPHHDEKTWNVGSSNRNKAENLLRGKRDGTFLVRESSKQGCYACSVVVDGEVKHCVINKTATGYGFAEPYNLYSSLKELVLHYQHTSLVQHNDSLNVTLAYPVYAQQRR

“2-8-[4-1,6-5-bis(morpholin-4-yl)-1,3,5-triazin-2-yl]-2H-indazole [Compound 1112]” and `CN(C)C(=O)c1ccc(Oc2nc(-c3cnc(N)s3)nc(N3C4CCC3COC4)n2)cc1` [Compound 1001, 4-8-{[4-1-(2-11-amino-1,3-thiazol-5-yl)-6-5-{3-oxa-8-azabicyclo[3.2.1]octan-8-yl}-1,3,5-triazin-2-yl]oxy}-N,N-dimethylbenzamide] cannot be ordered by IC50: < 5 µM for the first, < 5 µM for the second.

`CN(C)C(=O)c1ccc(Oc2nc(-c3cnc(N)s3)nc(N3CCCOCC3)n2)cc1` [Compound 1002, 4-9-{[4-1-(2-17-amino-1,3-thiazol-5-yl)-6-5-(1,4-oxazepan-4-yl)-1,3,5-triazin-2-yl]oxy}-N,N-dimethylbenzamide] and `C[C@H]1COCCN1c1nc(Oc2ccc(C(=O)N(C)C)cc2)nc(-c2cnc(N)s2)n1` [Compound 1003, 4-9-{[4-1-(2-22-amino-1,3-thiazol-5-yl)-6-5-(3-25-methylmorpholin-4-yl)-1,3,5-triazin-2-yl]oxy}-N,N-dimethylbenzamide] cannot be ordered by IC50: < 5 µM for the first, < 5 µM for the second.

`CN(C)C(=O)c1ccc(Oc2nc(-c3cnc(N)s3)nc(N3CCOCC3)n2)cc1` [Compound 1004, 4-14-{[4-1-(2-27-amino-1,3-thiazol-5-yl)-6-5-(morpholin-4-yl)-1,3,5-triazin-2-yl]oxy}-N,N-dimethylbenzamide] and `CS(=O)(=O)N1CCC(COc2nc(-c3cnc(N)nc3)nc(N3CCOCC3)n2)CC1` [Compound 1005, 5-(4-((1-(methylsulfonyl)piperidin-4-yl)methoxy)-6-morpholino-1,3,5-triazin-2-yl)pyrimidin-2-amine] cannot be ordered by IC50: < 5 µM for the first, < 5 µM for the second.

`CN(C)C(=O)Cc1ccc(Oc2nc(-c3cnc(N)nc3)nc(N3CCOCC3)n2)cc1` [Compound 1006, 2-26-(4-20-{[4-3-(2-15-aminopyrimidin-5-yl)-6-5-(morpholin-4-yl)-1,3,5-triazin-2-yl]oxy}phenyl)-N,N-dimethylacetamide] and `Nc1ncc(-c2nc(Nc3nccs3)nc(N3CCOCC3)n2)s1` [Compound 1007, N-(4-(2-aminothiazol-5-yl)-6-morpholino-1,3,5-triazin-2-yl)thiazol-2-amine] cannot be ordered by IC50: < 5 µM for the first, < 5 µM for the second.

`CN(C)C(=O)N1CCC(Oc2nc(-c3cnc(N)nc3)nc(N3CCOCC3)n2)CC1` [Compound 1008, 4-14-{[4-1-(2-17-aminopyrimidin-5-yl)-6-5-(morpholin-4-yl)-1,3,5-triazin-2-yl]oxy}-N,N-dimethylpiperidine-1-carboxamide] and `CN(C)C(=O)c1ccc(Oc2nc(-c3cnc(N)cn3)nc(N3CCOCC3)n2)cc1` [Compound 1009, 4-14-{[4-1-(5-17-aminopyrazin-2-yl)-6-5-(morpholin-4-yl)-1,3,5-triazin-2-yl]oxy}-N,N-dimethylbenzamide] cannot be ordered by IC50: < 5 µM for the first, < 5 µM for the second.

`Nc1ccc(-c2nc(Oc3ccc4c(c3)CCC(=O)N4)nc(N3CCOCC3)n2)cn1` [Compound 1010, 6-20-{[4-1-(6-11-ammopyridin-3-yl)-6-5-(morpholin-4-yl)-1,3,5-triazin-2-yl]oxy}-1,2,3,4-tetrahydroquinolin-2-one] and `CN(C)C(=O)c1ccc(Oc2nc(-c3cnc(N)nc3)nc(N3CCOCC3)n2)cc1` [Compound 1011, 4-14-{[4-1-(2-27-aminopyrimidin-5-yl)-6-5-(morpholin-4-yl)-1,3,5-triazin-2-yl]oxy}-N,N-dimethylbenzamide] cannot be ordered by IC50: < 5 µM for the first, < 5 µM for the second.

`CN(C)C(=O)c1ccc(Oc2nc(-c3ccc(N)nc3)nc(N3C4CCC3COC4)n2)cc1` [Compound 1012, 4-9-{[4-1-(6-12-aminopyridin-3-yl)-6-5-{3-oxa-8-azabicyclo[3.2.1]octan-8-yl}-1,3,5-triazin-2-yl]oxy}-N,N-dimethylbenzamide] and `CN(C)C(=O)Cc1cccc(Oc2nc(-c3ccc(N)nc3)nc(N3CCOCC3)n2)c1` [Compound 1013, 2-26-(3-20-{[4-1-(6-11-aminopyridin-3-yl)-6-5-(morpholin-4-yl)-1,3,5-triazin-2-yl]oxy}phenyl)-N,N-dimethylacetamide] cannot be ordered by IC50: < 5 µM for the first, < 5 µM for the second.

`CN(C)C(=O)c1ccc(Oc2nc(-c3ccc(N)nc3)nc(N3CCCOCC3)n2)cc1` [Compound 1014, 4-21-{[4-1-(6-9-aminopyridin-3-yl)-6-5-(1,4-oxazepan-4-yl)-1,3,5-triazin-2-yl]oxy}-N,N-dimethylbenzamide] and `CN(C)C(=O)c1cccc(Oc2nc(-c3ccc(N)nc3)nc(N3CCOCC3)n2)c1` [Compound 1015, 3-20-{[4-1-(6-11-aminopyridin-3-yl)-6-5-(morpholin-4-yl)-1,3,5-triazin-2-yl]oxy}-N,N-dimethylbenzamide] cannot be ordered by IC50: < 5 µM for the first, < 5 µM for the second.

`CN(C)C(=O)c1ccc(Oc2nc(-c3cccc4[nH]ncc34)nc(-n3ccnc3)n2)cc1` [Compound 1016, 4-9-{[4-5-(1H-imidazol-1-yl)-6-1-(1H-indazol-4-yl)-1,3,5-triazin-2-yl]oxy}-N,N-dimethylbenzamide] and `CN(C)C(=O)Cc1ccc(Oc2nc(-c3ccc(N)nc3)nc(N3CCOCC3)n2)cc1` [Compound 1017, 2-20-(4-9-{[4-1-(6-12-aminopyridin-3-yl)-6-5-(morpholin-4-yl)-1,3,5-triazin-2-yl]oxy}phenyl)-N,N-dimethylacetamide] cannot be ordered by IC50: < 5 µM for the first, < 5 µM for the second.

`Cc1cc(-c2nc(Oc3ccc(C(=O)N(C)C)cc3)nc(N3CCOCC3)n2)cnc1N` [Compound 1018, 4-14-{[4-1-(6-27-amino-5-26-methylpyridin-3-yl)-6-5-(morpholin-4-yl)-1,3,5-triazin-2-yl]oxy}-N,N-dimethylbenzamide] and `CN(C)C(=O)c1ccc(Oc2nc(-c3ccc(NN)nc3)nc(N3CCOCC3)n2)cc1` [Compound 1019, 4-14-{[4-1-(6-26-hydrazinylpyridin-3-yl)-6-5-(morpholin-4-yl)-1,3,5-triazin-2-yl]oxy}-N,N-dimethylbenzamide] cannot be ordered by IC50: < 5 µM for the first, < 5 µM for the second.

`Cc1nc(N)ccc1-c1nc(Oc2ccc(C(=O)N(C)C)cc2)nc(N2CCOCC2)n1` [Compound 1020, 4-14-{[4-1-(6-17-amino-2-19-methylpyridin-3-yl)-6-5-(morpholin-4-yl)-1,3,5-triazin-2-yl]oxy}-N,N-dimethylbenzamide] and `Cc1cc(Oc2nc(-c3ccc(N)nc3)nc(N3CCOCC3)n2)ccc1C(=O)N(C)C` [Compound 1021, 4-20-{[4-1-(6-16-aminopyridin-3-yl)-6-5-(morpholin-4-yl)-1,3,5-triazin-2-yl]oxy}-N,N,2-trimethylbenzamide] cannot be ordered by IC50: < 5 µM for the first, < 5 µM for the second.

Going from `Cc1cc(N)ncc1-c1nc(Oc2ccc(C(=O)N(C)C)cc2)nc(N2CCOCC2)n1` [Compound 1022, 4-14-{[4-1-(6-17-amino-4-15-methylpyridin-3-yl)-6-5-(morpholin-4-yl)-1,3,5-triazin-2-yl]ioxy}-N,N-dimethylbenzamide] to `CS(=O)(=O)N1CCC(COc2nc(-c3ccc(N)nc3)nc(N3CCOCC3)n2)CC1` [Compound 1023, 5-(4-((1-(methylsulfonyl)piperidin-4-yl)methoxy)-6-morpholino-1,3,5-triazin-2-yl)pyridin-2-amine], the IC50 falls from > 5 µM to < 5 µM. The second is the more potent here.

`CN(C)C(=O)c1ccc(Oc2nc(-c3ccncc3)nc(-c3cccc4[nH]ncc34)n2)cc1` [Compound 1024, 4-9-{[4-1-(1H-indazol-4-yl)-6-5-(pyridin-4-yl)-1,3,5-triazin-2-yl]oxy}-N,N-dimethylbenzamide] was tested, and the IC50 was > 5 µM.
